# Measured values reported in patent publication US20260008784A1 (VASTHERA CO., LTD., priority 2022, published 2026).
# What was measured:
# [1] = tested on: yeast thioredoxin (Trx)/yeast Trx reductase (TR); assay: Peroxidase activity assay (H2O2 reduction, NADPH oxidation); format: biochemical; details: 50 μM test compound, 3 μM yeast Trx, 1.5 μM yeast TR, 250 μM NADPH, 1.2 mM H2O2, 30° C.; NADPH oxidized per minute
# Experimental: Hydrogen peroxide (H2O2)-reducing peroxidase activity of compounds in present invention was performed as follows. Peroxyredoxin activity was measured in reaction mixture (200 μL volume) containing 50 mM HEPES buffer (pH 7.0), 1 mM EDTA, 250 μM NADPH, 3 μM yeast thioredoxin (Trx), 1.5 μM yeast Trx reductase (TR), 50 μM test compound, and 1.2 mM H2O2.
# Reaction was initiated by adding H2O2 and the decrease in absorbance at 340 nm was measured using Agilent UV8453 spectrophotometry (Hewlett Packard, USA) at 30° C. for 12 min. Initial reaction rate is the amount of NADPH oxidized per minute calculated from slope of the linear part of curve.
# The H2O2-reducing peroxidase activity of the test compounds in present invention was measured in a reaction mixture containing thioredoxin (Trx)/thioredoxin reductase (TR), respectively.
# [2] = Measurement of redox potential (DTT redox buffers, HPLC); format: physicochemical; details: DTT(Red)/DTT(Ox) redox buffers, 3 h, 30° C., 50% reduction of test compound
# Experimental: A test compound (10 mM) was diluted 20-fold with each redox buffer solution and incubated for 3 h in a 30° C. water bath. Then, compounds were analyzed by HPLC. The area of peaks corresponding to the oxidized and reduced forms of test compound based on specific retention time was calculated and plotted as percent of total peak area against the Nernst equation value (mV) at x-axis. The Nernst equation value corresponding to 50% reduction of test compound was set as the midpoint redox potential value for test compound.
# The redox potential values of the test compounds were analyzed based on the potential values established in redox buffer solutions where reduced and oxidized DTT are mixed at various ratios.
# [3] = tested on: Tyr 857 phosphorylation of PDGF receptor-β (PDGFRβ) in HASMC; assay: Immunoblot of PDGF-mediated signaling in PrxII knock-down HASMC; format: cell-based, human; details: HASMC depleted of PrxII expression, FIG. 2
# Experimental: (§1) Cells were quickly washed in ice-cold phosphate-buffered saline (PBS) and lysed in extraction buffer containing 20 mM Hepes (pH 7.0), 1% Triton X-100, 150 mM NaCl, 10% glycerol, 1 mM EDTA, 2 mM EGTA, and 1 mM DTT, 5 mM Na3VO4, 5 mM NaF, 1 mM AEBSF, aprotinin (5 μg/mL), and leupeptin (5 μg/mL). After cen-trifugation at 12,000×g, the clarified cell extracts were used for immunoblotting. For re-blotting, the immunoblots were retrieved in a solution of 67 mM Tris (pH 6.7), 2% SDS, and 100 mM 2-mercaptoethanol at 60° C. for 30 min to remove antibodies and rinsed three times with a Tris-buffered saline (TBS) solution containing 1% Triton X-100. The retrieved membranes were subjected to new immunoblotting.
# In human aortic smooth muscle cell (HASMC) and human pulmonary artery smooth muscle cell (PASMC) in which PrxII was knocked out by transfecting the PrxII siRNA, the ability of test compounds to replace the cellular function of PrxII was evaluated. That is, the efficacy of the new compounds was verified in terms of signaling pathways induced by PDGF that regulates the growth and migration of vascular smooth muscle cells in the aorta and pulmonary artery. Activation of PDGF-induced signaling pathway was analyzed by an immunoblot method using an antibody that specifically recognizes phosphorylation of Tyr 857, which is a major phosphorylation site on PDGF receptor (PDGFRβ).
# [4] = tested on: Tyr 1175 phosphorylation of VEGF receptor-2 (VEGFR2) in HAEC; assay: Immunoblot of VEGF-mediated signaling in PrxII knock-down HAEC; format: cell-based, human; details: HAECs depleted of PrxII expression, FIG. 5
# Experimental: as §1
# In human aortic endothelial cell (HAEC) and human pulmonary artery endothelial cell (PAEC) in which PrxII was knocked out by transfecting the PrxII siRNA, the ability of test compounds to replace the cellular function of PrxII was evaluated. That is, the efficacy of the new compounds was verified in terms of signaling pathways induced by VEGF that regulates the growth and migration of vascular endothelial cells in the aorta and pulmonary artery. Activation of VEGF-induced signaling pathway was analyzed by an immunoblot method using an antibody that specifically recognizes phosphorylation of Tyr 1175, which is a major phosphorylation site on VEGF receptor-2 (VEGFR2).
# [5] = tested on: human aortic smooth muscle cell (HASMC); assay: PDGF-induced proliferation assay, HASMC (PrxII siRNA); format: cell-based; details: for Degree of HASMC proliferation: PDGF-BB 25 ng/mL, percent of untreated control
# Experimental: (§2) HASMCs and PASMCs were transfected with a PrxII-specific siRNA using RNAi MAX transfection reagent according to manufacturer's protocol. After 24 hours, transfected cells (3,000 cells/well) were seeded in a 96-well culture plate. At 12 h after seeding, cells were serum-starved for additional 18 h in SmBM basal medium containing 0.5% FBS. Test compounds were serially diluted with the same basal medium containing 0.5% FBS, added to the cells ([…]), and incubated for 2 h. After treatment, cells were placed in fresh SmBM medium containing 0.5% FBS and PDGF-BB (25 ng/mL) for growth factor stimulation and further cultured for 24 h.
# (§3) The degree of cell proliferation was measured using the Cell Titer-GLO kit ([…]). Data are the percent of luminescence intensity averaged from three replicate wells versus that of untreated control group.
# (§4) In human aortic smooth muscle cell (HASMC) and human pulmonary artery smooth muscle cell (PASMC) in which PrxII was knocked out by transfecting the PrxII siRNA, the ability of test compounds to inhibit the PDGF-induced proliferation of vascular smooth muscle cells was evaluated. In Table 6, the degree of proliferation in the compound-treated groups is expressed as percent of the degree of proliferation in untreated control group. The concentrations of test compounds corresponding to 50% growth inhibition (IC50) is also listed.
# [6] = tested on: human pulmonary artery smooth muscle cell (PASMC); assay: PDGF-induced proliferation assay, PASMC (PrxII siRNA); format: cell-based; details: for Degree of PASMC proliferation: PDGF-BB 25 ng/mL, percent of untreated control
# Experimental: as §2, §3, §4
# [7] = tested on: human aortic endothelial cell (HAEC); assay: VEGF-induced proliferation assay, HAEC (PrxII siRNA); format: cell-based; details: for Degree of HAEC proliferation: VEGF-A 25 ng/mL, percent of untreated control
# Experimental: as §2, with “HAECs” for “HASMCs”, “PAECs” for “PASMCs”, “EBM” for “SmBM”, “VEGF-A” for “PDGF-BB”
# as §3
# In human aortic endothelial cell (HAEC) and human pulmonary artery endothelial cell (PAEC) in which PrxII was knocked out by transfecting the PrxII siRNA, the ability of test compounds to augment the VEGF-induced proliferation of vascular endothelial cells was evaluated. In Table 7, the degree of proliferation in the compound-treated groups is expressed as percent of the degree of proliferation in untreated control group. The effective concentrations of test compounds increasing cell proliferation by 50% (EC50) is also listed.
# Experimental for in vitro: Cytotoxicity tests were performed against vascular endothelial cells, vascular smooth muscle cells and hepatocytes. After treatment with ascending concentrations of each compound, the concentration of test compound corresponding to 50% cell viability (CC50) was measured.
compound,measurement,setting,value
"CN1C(=O)C2(C)SSCC1C(=O)N2Cc1cn(C)cn1 (centres unmarked) [Compound 17, 1,6-dimethyl-8-((1-methyl-1H-imidazol-4-yl)methyl)-2,3-dithia-6,8-diazabicyclo[3.2.2]nonane-7,9-dione]",Peroxidase activity for H2O2 reduction,[1],4.80 nmol/min
"CC1SSC2(C)C(=O)N(Cc3ccccc3)C1C(=O)N2C (centres unmarked) [Compound 24, 6-benzyl-1,4,8-trimethyl-2,3-dithia-6,8-diazabicyclo[3.2.2]nonane-7,9-dione]",Peroxidase activity for H2O2 reduction,[1],4.26 nmol/min
"6-benzyl-1,4,8-trimethyl-2,3-dithia-6,8-diazabicyclo[3.2.2]nonane-7,9-dione [Compound 25]",Peroxidase activity for H2O2 reduction,[1],4.51 nmol/min
"COC(=O)c1ccc(CN2C(=O)C3CSSC2(C)C(=O)N3C)cc1 (centres unmarked) [Compound 18, Methyl 4-((1,6-dimethyl-7,9-dioxo-2,3-dithia-6,8-diazabicyclo[3.2.2]nonan-8-yl)methyl)benzo ate]",Peroxidase activity for H2O2 reduction,[1],4.91 nmol/min
"CN1C(=O)C2(C)SSCC1C(=O)N2Cc1ncccn1 (centres unmarked) [Compound 16, 1,6-dimethyl-8-(pyrimidin-2-ylmethyl)-2,3-dithia-6,8-diazabicyclo[3.2.2]nonane-7,9-d ione]",Peroxidase activity for H2O2 reduction,[1],4.93 nmol/min
"COc1cc(CN2C(=O)C3(C)SSCC2C(=O)N3C)cc(OC)c1OC (centres unmarked) [Compound 3, 1,8-dimethyl-6-(3,4,5-trimethoxybenzyl)-2,3-dithia-6,8-diazabicyclo[3.2.2]nonane-7,9-dione]",Peroxidase activity for H2O2 reduction,[1],4.11 nmol/min
same,Midpoint redox potential (E m),[2],−296 mV
same,CC50,in vitro,82600 nM
CN1C(=O)C2CSSC1(C)C(=O)N2Cc1ccc(F)cc1F (centres unmarked) [Compound 4],Peroxidase activity for H2O2 reduction,[1],3.82 nmol/min
same,Midpoint redox potential (E m),[2],−292.74 mV
same,CC50,in vitro,98000 nM
"CN1CCN2C(=O)C3CSSC2(C1)C(=O)N3Cc1ccccc1 (centres unmarked) [Compound 21, 12-benzyl-9-methylhexahydro-5H-4,10a-(epiminomethano)pyrazino[2,1-c][1,2,4]dithi azepine-5,11-dione]",Peroxidase activity for H2O2 reduction,[1],8.38 nmol/min
same,Midpoint redox potential (E m),[2],−272.86 mV
same,Effect on phosphorylation of Tyr 857 on PDGFR,[3],strongly abolish the phosphorylation
same,Effect on phosphorylation of Tyr 1175 on VEGFR2,[4],strongly abolish the phosphorylation
same,Degree of HASMC proliferation,[5]; 2.5 nM,88.1%
same,Degree of HASMC proliferation,[5]; 5 nM,63.9%
same,Degree of HASMC proliferation,[5]; 10 nM,27.2%
same,Degree of HASMC proliferation,[5]; 25 nM,4.0%
same,IC50,"[5]; Homo sapiens, HASMC, 50% growth inhibition, PDGF-stimulated",6.41 nM
same,Degree of PASMC proliferation,[6]; 2.5 nM,69.9%
same,Degree of PASMC proliferation,[6]; 5 nM,49.6%
same,Degree of PASMC proliferation,[6]; 10 nM,18.7%
same,Degree of PASMC proliferation,[6]; 25 nM,6.0%
same,Degree of PASMC proliferation,[6]; 50 nM,7.1%
same,Degree of PASMC proliferation,[6]; 100 nM,0.0%
same,IC50,"[6]; Homo sapiens, PASMC, 50% growth inhibition, PDGF-stimulated",4.51 nM
same,Degree of HAEC proliferation,[7]; 2.5 nM,105.0%
same,Degree of HAEC proliferation,[7]; 5 nM,122.7%
same,Degree of HAEC proliferation,[7]; 10 nM,154.6%
same,Degree of HAEC proliferation,[7]; 25 nM,190.1%
same,Degree of HAEC proliferation,[7]; 50 nM,202.0%
same,Degree of HAEC proliferation,[7]; 100 nM,141.2%
same,EC50,"[7]; Homo sapiens, Endothelial cell, effective concentration increasing cell proliferation by 50%, VEGF-stimulated",9.96 nM
"O=C1C2CSSC3(CCCN13)C(=O)N2Cc1ccncc1 (centres unmarked) [Compound 11, 11-(pyridin-4-ylmethyl)tetrahydro-5H,7H-4,9a-(epiminomethano)pyrrolo[2,1-c][1,2,4]dithiazepine-5,10-dione]",Peroxidase activity for H2O2 reduction,[1],4.57 nmol/min
CN1CCN2C(=O)C3CSSC2(C1)C(=O)N3Cc1ccncc1 (centres unmarked) [Compound 22],Peroxidase activity for H2O2 reduction,[1],7.97 nmol/min
same,Effect on phosphorylation of Tyr 857 on PDGFR,[3],strongly abolish the phosphorylation
"O=C1C2CSSC3(COCCN13)C(=O)N2Cc1ccncc1 (centres unmarked) [Compound 9, 12-(pyridin-4-ylmethyl)tetrahydro-5H,10H-4,10a-(epiminomethano)[1,4]oxazino[3,4-c][1,2,4]dithiazepin-5,11-dione]",Peroxidase activity for H2O2 reduction,[1],5.19 nmol/min
